This is an account of results in PubChem BioAssay (NCI).

Each structure is given as a SMILES string. Where “and” joins values, the source holds several entries; their conditions need not be identical. Identical values can stand only once.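 Cells were grown in 96-well plates and exposed to each compound for 48 hours at five concentrations; endpoints were interpolated linearly between bracketing concentrations, or set to the highest concentration if not reached. GI50 = concentration required for 50% inhibition of growth. TGI: concentration producing complete growth inhibition.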

Some test systems named below: A549 NSCLC; CCRF-CEM leukemia; HOP-62 NSCLC; HT29 colon; M14 melanoma; OVCAR-3 ovarian; OVCAR-8 ovarian; RPMI-8226 leukemia; SNB-19 CNS; SW-620 colon.
What all share (assay): NCI tumour cell line growth inhibition, 48 h

Take `CCC(=O)Nc1ccccc1C#C/C=C\C#Cc1ccccc1C(F)(F)F`: the GI50 was 2.53 µM with A549 NSCLC; 2.4 µM in the experiment with CCRF-CEM leukemia; 2.42 µM with HOP-62 NSCLC; 5.94 µM in the experiment with HT29 colon; 2.09 µM in the experiment on M14 melanoma; 2.4 µM in the experiment with OVCAR-3 ovarian. The GI50 in the experiment with OVCAR-8 ovarian is 8.04 µM; with RPMI-8226 leukemia, 4.25 µM; with SNB-19 CNS it was 5.52 µM; in the experiment on SW-620 colon, 1.73 µM. Further, the TGI in the experiment on A549 NSCLC was greater than 32.6 µM; with CCRF-CEM leukemia it was greater than 20 µM; in the experiment on HOP-62 NSCLC, greater than 50 µM; with HT29 colon it was greater than 50 µM; with M14 melanoma it was 23.2 µM; with OVCAR-3 ovarian, 11.2 µM. Also, the TGI with OVCAR-8 ovarian was greater than 50 µM; in the experiment on RPMI-8226 leukemia it was greater than 50 µM; with SNB-19 CNS, greater than 50 µM; in the experiment on SW-620 colon, greater than 24.4 µM.

Consider `CSc1nc(NC2OC(COC(C)=O)C(OC(C)=O)C(OC(C)=O)C2OC(C)=O)c(-c2csc(N)n2)c(=O)n1C` (stereo not given), for which the TGI with A549 NSCLC was greater than 100 µM; in the experiment on CCRF-CEM leukemia, greater than 100 µM; in the experiment with HOP-62 NSCLC it was 66.9 µM; in the experiment on HT29 colon, greater than 100 µM; in the experiment on M14 melanoma it was greater than 100 µM; in the experiment on OVCAR-3 ovarian, greater than 100 µM. For the same compound, the TGI was 86.9 µM in the experiment with OVCAR-8 ovarian, greater than 100 µM in the experiment on RPMI-8226 leukemia, greater than 100 µM in the experiment on SNB-19 CNS and greater than 100 µM in the experiment with SW-620 colon.

With `Cc1cc(C(=O)O)c(C)n1-c1cccc(C(=O)O)c1`, the GI50 with A549 NSCLC, with CCRF-CEM leukemia, in the experiment with HOP-62 NSCLC, in the experiment on HT29 colon, in the experiment with M14 melanoma and in the experiment with OVCAR-3 ovarian was greater than 100 µM each time. The GI50 in the experiment on OVCAR-8 ovarian, with RPMI-8226 leukemia, with SNB-19 CNS and in the experiment with SW-620 colon was greater than 100 µM throughout. The TGI in the experiment on A549 NSCLC, with CCRF-CEM leukemia, with HOP-62 NSCLC, in the experiment on HT29 colon, with M14 melanoma and in the experiment on OVCAR-3 ovarian was greater than 100 µM throughout. Further, the TGI in the experiment with OVCAR-8 ovarian, in the experiment on RPMI-8226 leukemia, with SNB-19 CNS and in the experiment with SW-620 colon was greater than 100 µM throughout.

Regarding `Cc1cc(C(=O)NC(CCC(=O)O)C(=O)O)sc1CCC1CNc2nc(N)[nH]c(=O)c2C1` (stereo not given), the GI50 with A549 NSCLC is 0.0437 µM and 0.156 µM; with CCRF-CEM leukemia, 0.0123 µM and 0.0273 µM; with HOP-62 NSCLC it was 0.0533 µM and 0.0806 µM; in the experiment on HT29 colon, < 0.0198 µM and 0.0322 µM; with M14 melanoma, < 0.0192 µM and 0.0501 µM; in the experiment with OVCAR-3 ovarian it was 0.0523 µM and 0.487 µM. Also, the GI50 with OVCAR-8 ovarian is < 0.0215 µM and 0.0454 µM; in the experiment on RPMI-8226 leukemia it was 0.15 µM and 0.229 µM; with SNB-19 CNS, 0.0783 µM and 0.606 µM; with SW-620 colon it was < 0.0174 µM and 0.0255 µM. The TGI with A549 NSCLC, in the experiment on CCRF-CEM leukemia, in the experiment with HOP-62 NSCLC, in the experiment with HT29 colon, with M14 melanoma and in the experiment on OVCAR-3 ovarian was greater than 100 µM throughout. Also, the TGI in the experiment with OVCAR-8 ovarian, in the experiment on RPMI-8226 leukemia, in the experiment on SNB-19 CNS and in the experiment on SW-620 colon was greater than 100 µM each time.

For the compound `C[n+]1c(-c2ccc(/C=N/NC(=O)c3ccc(C(=O)N/N=C/c4ccc(-c5cn6ccccc6[n+]5C)cc4)cc3)cc2)cn2ccccc21`, the GI50 in the experiment on A549 NSCLC was 176 µM; with CCRF-CEM leukemia it was 209 µM; in the experiment on HOP-62 NSCLC, 277 µM; in the experiment with HT29 colon, 137 µM; with M14 melanoma it was 623 µM; in the experiment with OVCAR-3 ovarian, greater than 1000 µM. The GI50 with OVCAR-8 ovarian was 184 µM; in the experiment with RPMI-8226 leukemia, 121 µM; in the experiment with SNB-19 CNS, 248 µM; in the experiment on SW-620 colon, greater than 1000 µM. For the same compound, the TGI in the experiment with A549 NSCLC is 314 µM; in the experiment with CCRF-CEM leukemia it was > 50 µM and 353 µM; with HOP-62 NSCLC it was 425 µM; in the experiment with HT29 colon it was 266 µM; in the experiment on M14 melanoma, greater than 1000 µM; with OVCAR-3 ovarian it was greater than 1000 µM. Also, the TGI is 323 µM with OVCAR-8 ovarian, 306 µM with RPMI-8226 leukemia, 517 µM in the experiment on SNB-19 CNS and greater than 1000 µM in the experiment with SW-620 colon.

For the compound `CC12CO[C@@](C)(CC(S(=O)(=O)c3ccccc3)C1)O2` (stereo not given in full), the TGI with A549 NSCLC, in the experiment on CCRF-CEM leukemia, with HOP-62 NSCLC, with HT29 colon, in the experiment with M14 melanoma and in the experiment with OVCAR-3 ovarian was greater than 100 µM each time. Also, the TGI in the experiment with OVCAR-8 ovarian, in the experiment with RPMI-8226 leukemia, in the experiment on SNB-19 CNS and in the experiment with SW-620 colon was greater than 100 µM each time.

With `CCCCC(=O)N/N=C/c1c(O)ccc2ccccc12`, the GI50 in the experiment with A549 NSCLC was 4.47 µM; in the experiment with CCRF-CEM leukemia, 0.267 µM; in the experiment with HOP-62 NSCLC, 7.95 µM; in the experiment on HT29 colon it was 27.5 µM; in the experiment with M14 melanoma, 1.82 µM; in the experiment with OVCAR-3 ovarian, 0.423 µM. The GI50 in the experiment on OVCAR-8 ovarian is 2.78 µM; in the experiment on RPMI-8226 leukemia, 0.247 µM; in the experiment on SNB-19 CNS, 4.26 µM; with SW-620 colon it was 3.54 µM. Besides, the TGI was greater than 92.1 µM with A549 NSCLC; 1.28 µM in the experiment on CCRF-CEM leukemia; greater than 100 µM in the experiment on HOP-62 NSCLC; greater than 100 µM in the experiment with HT29 colon; 14.6 µM in the experiment on M14 melanoma; 9.37 µM with OVCAR-3 ovarian. Besides, the TGI in the experiment on OVCAR-8 ovarian is greater than 100 µM; in the experiment with RPMI-8226 leukemia, 1.57 µM; in the experiment with SNB-19 CNS it was greater than 100 µM; with SW-620 colon, greater than 100 µM.
